Results on 1 compound are retold here after paper PMC9648375, “Identification of the first-in-class dual inhibitors of human DNA topoisomerase IIα and indoleamine-2,3-dioxygenase 1 (IDO 1) with strong anticancer properties” (Journal of Enzyme Inhibition and Medicinal Chemistry, 2022).

In brackets after ≈: the same amount, converted by molar mass. Some results are limits rather than exact numbers.

System in one series: not listed separately
The series can be described thus: MTT assay. The settings on record: human, HEK-293 cells (normal reference cell line), HEK-293 (normal cells), 24h, read-out: IC50, cytotoxicity. Format: cell-based. As for the experimental part: (§1) Therefore, the whole set of compounds were tested by using MTT assay in order to check their overall cytotoxic effect. The growth of cells was monitored after 24 and 48 h of incubation with the increased concentrations (1–100 µg/ml) of the thiosemicarbazide derivatives. […] This confirms that the compounds tested combine different mechanisms of anticancer activity, and DNA topoisomerase II inhibition is only one of them.
(§2) Cytotoxicity of the synthesised compounds were examined against a panel of the cancer cell lines, MCF-7 (estrogen-dependent human breast cancer cells), MDA-MB-231 (oestrogen-independent human breast cancer cells), SCC- 25 (squamous cell carcinoma of the tongue), FaDu (squamous cell carcinoma of the pharynx), A- 549 (human lung carcinoma), AGS (human gastric adenocarcinoma), LS-180, HT-29 (colon cancer cell lines), T98G (glioblastoma cells), A375 (melanoma cells). Human embryonic kidney (HEK-293) cells and human normal skin fibroblasts (CRL-2072) were used as reference cell lines. The investigated cell lines were obtained from American Type Culture Collection (ATCC; Manassas, VA, USA). A375, MCF-7, MDA-MB-231, T98G cells were cultured in Dulbecco’s Modified Eagle’s Medium (DMEM) (Sigma Aldrich, St. Louis, MO, USA) supplemented with 10% heat inactivated foetal bovine serum (FBS), penicillin (100 U/mL), and streptomycin (100 μg/mL). SCC-25 cells were cultured in 1:1 mixture of Dulbecco’s modified Eagle’s medium and Ham’s F12 Medium (Sigma Aldrich, St. Louis, MO, USA) supplemented with 400 ng/ml hydrocortisone, 10% FBS, penicillin (100 U/mL), and streptomycin (100 μg/mL). A549 and AGS cells were maintained in F-12K Medium (Sigma Aldrich, St. Louis, MO, USA). LS-180 and FaDu cells were cultured in Eagle’s Minimum Essential Medium. HT-29 cells were maintained in McCoy’s 5 A Medium (Sigma Aldrich, St. Louis, MO, USA) supplemented with 10%FBS, penicillin (100 U/mL), and streptomycin (100 μg/mL). All the cells were maintained at 37 °C in a humidified atmosphere of 5% CO2.
(§3) The synthesised compounds were dissolved in DMSO in order to obtain stock solutions. At the day of the experiment, the suspension of cells (1 × 10^5 cells/mL) in the respective medium was applied to a 96-well plate at 100 μL per well. […] The control cells were cultured only with a medium containing 2% FBS. Cytotoxicity of DMSO was also checked at concentrations present in respective dilutions of stock solution. After 24 h (or 48 h) of incubation, 15 μL of MTT working solution (5 mg/mL in PBS) was added to each well. The plate was incubated for 3 h. Subsequently, 100 μL of 10% SDS solution was added to each well. Cells were incubated overnight at 37 °C to dissolve the precipitated formazan crystals. The concentration of the dissolved formazan was evaluated by measuring the absorbance at λ = 570 nm, using a microplate reader (Epoch, BioTek Instruments, Inc., Winooski, VT, USA). At least two independent experiments were performed in triplicates. The results of the MTT assay were expressed as mean ± SD. […] IC50 values of the investigated derivatives and standards were calculated using the IC50 calculator.[23]
In general terms: Tetrazolium dyes change colour on reduction, which living cells bring about.
By IC50 is commonly meant the concentration at which inhibition is half-maximal. For the compound `Cc1cccc(C(=O)NC(=S)NNC(=O)c2ccccc2[N+](=O)[O-])c1` [Compound 5, 4-(3-Methylobenzoyl)-1-(2-nitrobenzoyl)thiosemicarbazide], the IC50 at 24 h was found to be 78.1 µg/mL (≈ 218 µM).

The series is the same for the next values; noted with them: human, HEK-293 cells (normal reference cell line), HEK-293 (normal cells), 48h, read-out: IC50, cytotoxicity.
In the case of `Cc1cccc(C(=O)NC(=S)NNC(=O)c2ccccc2[N+](=O)[O-])c1` [Compound 5, 4-(3-Methylobenzoyl)-1-(2-nitrobenzoyl)thiosemicarbazide], the IC50 at 48 h was determined as 24.6 µg/mL (≈ 68.6 µM).

The test system of a further series is A375 (melanoma cells). The series is described as follows: MTT assay. Format: cell-based. The settings on record: Homo sapiens, A-375, 24h, read-out: IC50, cytotoxicity. The procedure: as §1, §2, §3
Take `Cc1cccc(C(=O)NC(=S)NNC(=O)c2ccccc2[N+](=O)[O-])c1` [Compound 5, 4-(3-Methylobenzoyl)-1-(2-nitrobenzoyl)thiosemicarbazide]: the IC50 is 89.3 µg/mL (≈ 249 µM).

The same series, now with this note: Homo sapiens, A-375, 48 h, read-out: IC50, cytotoxicity.
Take `Cc1cccc(C(=O)NC(=S)NNC(=O)c2ccccc2[N+](=O)[O-])c1` [Compound 5, 4-(3-Methylobenzoyl)-1-(2-nitrobenzoyl)thiosemicarbazide]: the IC50 turned out to be 38.5 µg/mL (≈ 107 µM).

Another series deals with A549 (human lung carcinoma). The series can be described thus: MTT assay. The class given is cell-based. The settings on record: 24h, read-out: IC50, cytotoxicity. The procedure:
as §1, §2, §3
As for `Cc1cccc(C(=O)NC(=S)NNC(=O)c2ccccc2[N+](=O)[O-])c1` [Compound 5, 4-(3-Methylobenzoyl)-1-(2-nitrobenzoyl)thiosemicarbazide], the IC50 was > 100 µg/mL.

Still in this series, the particulars now being: 48h, read-out: IC50, cytotoxicity.
Take `Cc1cccc(C(=O)NC(=S)NNC(=O)c2ccccc2[N+](=O)[O-])c1` [Compound 5, 4-(3-Methylobenzoyl)-1-(2-nitrobenzoyl)thiosemicarbazide]: the half-maximal inhibitory concentration (IC50) is > 100 µg/mL.

The subject of the next series is AGS (human gastric adenocarcinoma). The series is described as follows: MTT assay. The following applies: 24h, read-out: IC50, cytotoxicity. The class given is cell-based. As for the experimental part: as §1, §2, §3
Take `Cc1cccc(C(=O)NC(=S)NNC(=O)c2ccccc2[N+](=O)[O-])c1` [Compound 5, 4-(3-Methylobenzoyl)-1-(2-nitrobenzoyl)thiosemicarbazide]: the IC50 was > 100 µg/mL.

Staying with this series, now noted: 48 h, read-out: IC50, cytotoxicity.
Turning to `Cc1cccc(C(=O)NC(=S)NNC(=O)c2ccccc2[N+](=O)[O-])c1` [Compound 5, 4-(3-Methylobenzoyl)-1-(2-nitrobenzoyl)thiosemicarbazide], the IC50 is 63.9 µg/mL (≈ 178 µM).

For the next series, the system named is FaDu (squamous cell carcinoma of the pharynx). The series can be described thus: MTT assay. Format: cell-based. The following applies: Homo sapiens, 24h, read-out: IC50, cytotoxicity. The procedure:
as §1, §2, §3
With `Cc1cccc(C(=O)NC(=S)NNC(=O)c2ccccc2[N+](=O)[O-])c1` [Compound 5, 4-(3-Methylobenzoyl)-1-(2-nitrobenzoyl)thiosemicarbazide], the IC50 is > 100 µg/mL.

The same series, now with this note: Homo sapiens, 48 h, read-out: IC50, cytotoxicity.
Take `Cc1cccc(C(=O)NC(=S)NNC(=O)c2ccccc2[N+](=O)[O-])c1` [Compound 5, 4-(3-Methylobenzoyl)-1-(2-nitrobenzoyl)thiosemicarbazide]: the IC50 stood at 31.7 µg/mL (≈ 88.4 µM).

A further series has as its system HT-29 (colon cancer cell line). The series is described as follows: MTT assay. The class given is cell-based. The following applies: Homo sapiens; HT-29, MTT, 24h; read-out: IC50, cytotoxicity. The procedure: as §1, §2, §3
As for `Cc1cccc(C(=O)NC(=S)NNC(=O)c2ccccc2[N+](=O)[O-])c1` [Compound 5, 4-(3-Methylobenzoyl)-1-(2-nitrobenzoyl)thiosemicarbazide], the IC50 was determined as 45.2 µg/mL (≈ 126 µM).

The same series, now with this note: Homo sapiens; HT-29, MTT, 48 h; read-out: IC50, cytotoxicity.
In the case of `Cc1cccc(C(=O)NC(=S)NNC(=O)c2ccccc2[N+](=O)[O-])c1` [Compound 5, 4-(3-Methylobenzoyl)-1-(2-nitrobenzoyl)thiosemicarbazide], the IC50 is 12.3 µg/mL (≈ 34.3 µM).

The next series deals with LS180 (colon cancer cell line). The series is described as follows: MTT assay. The settings on record: Homo sapiens, 24h, read-out: IC50, cytotoxicity. The class given is cell-based. The procedure:
as §1, §2, §3
On to `Cc1cccc(C(=O)NC(=S)NNC(=O)c2ccccc2[N+](=O)[O-])c1` [Compound 5, 4-(3-Methylobenzoyl)-1-(2-nitrobenzoyl)thiosemicarbazide], for which the IC50 was > 100 µg/mL.

Staying with this series, now noted: Homo sapiens, 48 h, read-out: IC50, cytotoxicity.
Take `Cc1cccc(C(=O)NC(=S)NNC(=O)c2ccccc2[N+](=O)[O-])c1` [Compound 5, 4-(3-Methylobenzoyl)-1-(2-nitrobenzoyl)thiosemicarbazide]: the IC50 turned out to be 19.8 µg/mL (≈ 55.4 µM).

Another series relates to MCF-7 (estrogen-dependent human breast cancer cells). The series is described as follows: MTT assay. The following applies: MCF7, MCF-7, MTT, 24h, read-out: IC50, cytotoxicity. Format: cell-based. As for the experimental part:
as §1, §2, §3
As for `Cc1cccc(C(=O)NC(=S)NNC(=O)c2ccccc2[N+](=O)[O-])c1` [Compound 5, 4-(3-Methylobenzoyl)-1-(2-nitrobenzoyl)thiosemicarbazide], the IC50 is > 100 µg/mL.

The series is the same for the next values; noted with them: MCF7, MCF-7, MTT, 48h, read-out: IC50, cytotoxicity.
`Cc1cccc(C(=O)NC(=S)NNC(=O)c2ccccc2[N+](=O)[O-])c1` [Compound 5, 4-(3-Methylobenzoyl)-1-(2-nitrobenzoyl)thiosemicarbazide]: the IC50 turned out to be 28.1 µg/mL (≈ 78.5 µM).

The test system of a further series is MDA-MB-231 (estrogen-independent human breast cancer cells). The series can be described thus: MTT assay. The following applies: MDA-MB-231, MTT, 24h, read-out: IC50, cytotoxicity. Format: cell-based. As for the experimental part: as §1, §2, §3
As for `Cc1cccc(C(=O)NC(=S)NNC(=O)c2ccccc2[N+](=O)[O-])c1` [Compound 5, 4-(3-Methylobenzoyl)-1-(2-nitrobenzoyl)thiosemicarbazide], the IC50 is > 100 µg/mL.

Staying with this series, now noted: MDA-MB-231, MTT, 48h, read-out: IC50, cytotoxicity.
For the compound `Cc1cccc(C(=O)NC(=S)NNC(=O)c2ccccc2[N+](=O)[O-])c1` [Compound 5, 4-(3-Methylobenzoyl)-1-(2-nitrobenzoyl)thiosemicarbazide], the IC50 amounted to 56.3 µg/mL (≈ 157 µM).

In a further series the test system is SCC-25 (squamous cell carcinoma of the tongue). The series is described as follows: MTT assay. The class given is cell-based. The following applies: Homo sapiens; SCC-25, MTT, 24h; read-out: IC50, cytotoxicity. As for the experimental part:
as §1, §2, §3
As for `Cc1cccc(C(=O)NC(=S)NNC(=O)c2ccccc2[N+](=O)[O-])c1` [Compound 5, 4-(3-Methylobenzoyl)-1-(2-nitrobenzoyl)thiosemicarbazide], the IC50 was > 100 µg/mL.

Staying with this series, now noted: Homo sapiens; SCC-25, MTT, 48 h; read-out: IC50, cytotoxicity.
As for `Cc1cccc(C(=O)NC(=S)NNC(=O)c2ccccc2[N+](=O)[O-])c1` [Compound 5, 4-(3-Methylobenzoyl)-1-(2-nitrobenzoyl)thiosemicarbazide], the IC50 was 17.3 µg/mL (≈ 48.3 µM).

A further series deals with T98G (glioblastoma cells). The series is described as follows: MTT assay. The settings on record: Homo sapiens, 24h, read-out: IC50, cytotoxicity. The class given is cell-based. The procedure: as §1, §2, §3
In the case of `Cc1cccc(C(=O)NC(=S)NNC(=O)c2ccccc2[N+](=O)[O-])c1` [Compound 5, 4-(3-Methylobenzoyl)-1-(2-nitrobenzoyl)thiosemicarbazide], the IC50 was > 100 µg/mL.

Staying with this series, now noted: Homo sapiens, 48h, read-out: IC50, cytotoxicity.
Take `Cc1cccc(C(=O)NC(=S)NNC(=O)c2ccccc2[N+](=O)[O-])c1` [Compound 5, 4-(3-Methylobenzoyl)-1-(2-nitrobenzoyl)thiosemicarbazide]: the IC50 was found to be 30.1 µg/mL (≈ 83.9 µM).

System in a further series: not given
Test: not given
Conditions: not given
A word on the melting point: it is the temperature, or range, at which the solid turns liquid. `Cc1cccc(C(=O)NC(=S)NNC(=O)c2ccccc2[N+](=O)[O-])c1` [Compound 5, 4-(3-Methylobenzoyl)-1-(2-nitrobenzoyl)thiosemicarbazide]: the melting point was in the range of 194 to 195 °C.
